Experimental data reported in patent publication US6054435A, “6-O-substituted macrolides having antibacterial activity” (priority 1999, dated 2000).
≈ marks a conversion by molar mass, not a printed value.

Key:
Assay in all cases: in vitro antibacterial activity (MIC), agar dilution
Assay type in all cases: cell-based
[1] = tested on: Escherichia coli SS; details: organism code RR; BHI agar, 35-37° C., 20 to 24 hours; unit assumed
Procedure: (§1) Representative compounds of the present invention were assayed in vitro for antibacterial activity as follows: Twelve petri dishes containing successive aqueous dilutions of the test compound mixed with 10 mL of sterilized Brain Heart Infusion (BHI) agar (Difco 0418-01-5) were prepared. Each plate was inoculated with 1:100 (or 1:10 for slow-growing strains, such as Micrococcus and Streptococcus) dilutions of up to 32 different microorganisms, using a Steers replicator block. […] In addition, a control plate, using BHI agar containing no test compound, was prepared and incubated at the beginning and end of each test.
(§2) An additional plate containing a compound having known susceptibility patterns for the organisms being tested and belonging to the same antibiotic class as the test compound was also prepared and incubated as a further control, as well as to provide test-to-test comparability.
(§3) After incubation, each plate was visually inspected. The minimum inhibitory concentration (MIC) was defined as the lowest concentration of drug yielding no growth, a slight haze, or sparsely isolated colonies on the inoculum spot as compared to the growth control.

[2] = tested on: Streptococcus Pneumonia 5649; details: organism code ZZA; BHI agar, 35-37° C., 20 to 24 hours; unit assumed
Procedure: as §1, §2, §3

[3] = tested on: Streptococcus Pneumonia 5979; details: organism code ZZ; BHI agar, 35-37° C., 20 to 24 hours; unit assumed
Procedure: as §1, §2, §3

[4] = tested on: Staphylococcus aureus CMX 642A; details: organism code DD; BHI agar, 35-37° C., 20 to 24 hours; unit assumed
Procedure: as §1, §2, §3

[5] = tested on: Escherichia coli JUHL; details: organism code QQ; BHI agar, 35-37° C., 20 to 24 hours; unit assumed
Procedure: as §1, §2, §3

[6] = tested on: Nocardia Asteroides ATCC9970; details: organism code VV; BHI agar, 35-37° C., 20 to 24 hours; unit assumed
Procedure: as §1, §2, §3

[7] = tested on: Staphylococcus aureus A-5278; details: organism code CC; BHI agar, 35-37° C., 20 to 24 hours; unit assumed
Procedure: as §1, §2, §3

[8] = tested on: Streptococcus pyogenes 930; details: organism code MM; BHI agar, 35-37° C., 20 to 24 hours; unit assumed
Procedure: as §1, §2, §3

[9] = tested on: Streptococcus bovis A-5169; details: organism code JJ; BHI agar, 35-37° C., 20 to 24 hours; unit assumed
Procedure: as §1, §2, §3

[10] = tested on: Candida albicans CCH 442; details: organism code TT; BHI agar, 35-37° C., 20 to 24 hours; unit assumed
Procedure: as §1, §2, §3

[11] = tested on: Micrococcus luteus ATCC 4698; details: organism code PP; BHI agar, 35-37° C., 20 to 24 hours; unit assumed
Procedure: as §1, §2, §3

[12] = tested on: Haemophilis Influenzae DILL AMP R; details: organism code WW; BHI agar, 35-37° C., 20 to 24 hours; unit assumed
Procedure: as §1, §2, §3

[13] = tested on: Staphylococcus epidermidis 3519; details: organism code HH; BHI agar, 35-37° C., 20 to 24 hours; unit assumed
Procedure: as §1, §2, §3

[14] = tested on: Staphylococcus aureus 1775; details: organism code GG; BHI agar, 35-37° C., 20 to 24 hours; unit assumed
Procedure: as §1, §2, §3

[15] = tested on: Staphylococcus aureus ATCC 6538P; details: organism code AA; BHI agar, 35-37° C., 20 to 24 hours; unit assumed
Procedure: as §1, §2, §3

[16] = tested on: Streptococcus pyogenes PIU 2548; details: organism code NN; BHI agar, 35-37° C., 20 to 24 hours; unit assumed
Procedure: as §1, §2, §3

[17] = tested on: Streptococcus agalactiae CMX 508; details: organism code KK; BHI agar, 35-37° C., 20 to 24 hours; unit assumed
Procedure: as §1, §2, §3

[18] = tested on: Mycobacterium smegmatis ATCC 114; details: organism code UU; BHI agar, 35-37° C., 20 to 24 hours; unit assumed
Procedure: as §1, §2, §3

[19] = tested on: Streptococcus pyogenes EES61; details: organism code LL; BHI agar, 35-37° C., 20 to 24 hours; unit assumed
Procedure: as §1, §2, §3

[20] = tested on: Enterococcus faecium ATCC 8043; details: organism code II; BHI agar, 35-37° C., 20 to 24 hours; unit assumed
Procedure: as §1, §2, §3

[21] = tested on: Staphylococcus aureus A5177; details: organism code BB; BHI agar, 35-37° C., 20 to 24 hours; unit assumed
Procedure: as §1, §2, §3

[22] = tested on: Micrococcus luteus ATCC 9341; details: organism code OO; BHI agar, 35-37° C., 20 to 24 hours; unit assumed
Procedure: as §1, §2, §3

[23] = tested on: Staphylococcus aureus NCTC10649M; details: organism code EE; BHI agar, 35-37° C., 20 to 24 hours; unit assumed
Procedure: as §1, §2, §3

[24] = tested on: Escherichia coli DC-2; details: organism code SS; BHI agar, 35-37° C., 20 to 24 hours; unit assumed
Procedure: as §1, §2, §3

[25] = tested on: Streptococcus Pneumonia GYR 1171; details: organism code YY; BHI agar, 35-37° C., 20 to 24 hours; unit assumed
Procedure: as §1, §2, §3

[26] = tested on: Staphylococcus aureus CMX 553; details: organism code FF; BHI agar, 35-37° C., 20 to 24 hours; unit assumed
Procedure: as §1, §2, §3

[27] = tested on: Streptococcus Pneumonia ATCC6303; details: organism code XX; BHI agar, 35-37° C., 20 to 24 hours; unit assumed
Procedure: as §1, §2, §3

Row | SMILES | MIC [1] | MIC [2] | MIC [3] | MIC [4] | MIC [5] | MIC [6] | MIC [7] | MIC [8] | MIC [9] | MIC [10] | MIC [11] | MIC [12] | MIC [13] | MIC [15] | MIC [16] | MIC [17] | MIC [18] | MIC [20] | MIC [21] | MIC [22] | other results
1 | CC[C@H]1OC(=O)[C@H](C)C(=O)[C@H](C)[C@@H](O[C@@H]2O[C@H](C)C[C@H](N(C)C)[C@H]2O)[C@](C)(OCC#Cc2ccc(-c3cc(Cl)cc(Cl)c3)s2)C[C@@H](C)C(=O)[C@H](C)[C@H]2NC(=O)O[C@@]21C [Example 17] | 12.5 µg/mL (≈ 14.5 µM) | 1 µg/mL (≈ 1.16 µM) | 1 µg/mL (≈ 1.16 µM) | 0.78 µg/mL (≈ 0.903 µM) | > 100 µg/mL | 0.78 µg/mL (≈ 0.903 µM) | 12.5 µg/mL (≈ 14.5 µM) | 3.1 µg/mL (≈ 3.59 µM) | 0.2 µg/mL (≈ 0.232 µM) | > 100 µg/mL | 0.78 µg/mL (≈ 0.903 µM) | 8 µg/mL (≈ 9.26 µM) | 0.78 µg/mL (≈ 0.903 µM) | 0.39 µg/mL (≈ 0.451 µM) | 0.39 µg/mL (≈ 0.451 µM) | 0.2 µg/mL (≈ 0.232 µM) | 0.78 µg/mL (≈ 0.903 µM) | 0.78 µg/mL (≈ 0.903 µM) | 0.78 µg/mL (≈ 0.903 µM) | 0.39 µg/mL (≈ 0.451 µM) | MIC [14]: 12.5 µg/mL (≈ 14.5 µM); MIC [19]: 0.39 µg/mL (≈ 0.451 µM); MIC [23]: 1.56 µg/mL (≈ 1.81 µM); MIC [24]: > 100 µg/mL; MIC [25]: 0.125 µg/mL (≈ 0.145 µM); MIC [26]: 0.78 µg/mL (≈ 0.903 µM)
2 | CC[C@H]1OC(=O)[C@H](C)C(=O)[C@H](C)[C@@H](O[C@@H]2O[C@H](C)C[C@H](N(C)C)[C@H]2O)[C@](C)(OCC#Cc2ccc(-c3ccsc3)s2)C[C@@H](C)C(=O)[C@H](C)[C@H]2NC(=O)O[C@@]21C [Example 27] | 0.2 µg/mL (≈ 0.25 µM) | 0.25 µg/mL (≈ 0.312 µM) | 4 µg/mL (≈ 4.99 µM) | 0.05 µg/mL (≈ 0.0624 µM) | 100 µg/mL (≈ 125 µM) | 0.01 µg/mL (≈ 0.0125 µM) | 100 µg/mL (≈ 125 µM) | 6.2 µg/mL (≈ 7.74 µM) | ≤ 0.005 µg/mL | > 100 µg/mL | 0.05 µg/mL (≈ 0.0624 µM) | 2 µg/mL (≈ 2.5 µM) | 0.05 µg/mL (≈ 0.0624 µM) | 0.05 µg/mL (≈ 0.0624 µM) | 0.1 µg/mL (≈ 0.125 µM) | ≤ 0.005 µg/mL | 0.2 µg/mL (≈ 0.25 µM) | 0.01 µg/mL (≈ 0.0125 µM) | 0.05 µg/mL (≈ 0.0624 µM) | ≤ 0.005 µg/mL | MIC [27]: 0.015 µg/mL (≈ 0.0187 µM); MIC [19]: ≤ 0.005 µg/mL; MIC [23]: 0.05 µg/mL (≈ 0.0624 µM); MIC [24]: 100 µg/mL (≈ 125 µM); MIC [25]: 0.015 µg/mL (≈ 0.0187 µM); MIC [26]: 0.05 µg/mL (≈ 0.0624 µM)
3 | CC[C@H]1OC(=O)[C@H](C)C(=O)[C@H](C)[C@@H](O[C@@H]2O[C@H](C)C[C@H](N(C)C)[C@H]2O)[C@](C)(OC/C=C/c2ccc(-c3cccc(F)c3)s2)C[C@@H](C)C(=O)[C@H](C)[C@H]2NC(=O)O[C@@]21C [Example 72] | 1.56 µg/mL (≈ 1.91 µM) | 1 µg/mL (≈ 1.23 µM) | 4 µg/mL (≈ 4.91 µM) | 0.2 µg/mL (≈ 0.245 µM) | > 100 µg/mL | 0.39 µg/mL (≈ 0.479 µM) | 25 µg/mL (≈ 30.7 µM) | 12.5 µg/mL (≈ 15.3 µM) | ≤ 0.005 µg/mL | > 100 µg/mL | 0.05 µg/mL (≈ 0.0613 µM) | 8 µg/mL (≈ 9.82 µM) | 0.2 µg/mL (≈ 0.245 µM) | 0.2 µg/mL (≈ 0.245 µM) | 0.39 µg/mL (≈ 0.479 µM) | 0.01 µg/mL (≈ 0.0123 µM) | 1.56 µg/mL (≈ 1.91 µM) | 0.05 µg/mL (≈ 0.0613 µM) | 0.2 µg/mL (≈ 0.245 µM) | 0.02 µg/mL (≈ 0.0245 µM) | MIC [14]: 25 µg/mL (≈ 30.7 µM); MIC [27]: 0.125 µg/mL (≈ 0.153 µM); MIC [23]: 0.2 µg/mL (≈ 0.245 µM); MIC [24]: > 100 µg/mL; MIC [25]: 0.125 µg/mL (≈ 0.153 µM); MIC [26]: 0.2 µg/mL (≈ 0.245 µM)
